Measurements taken from patent publication US3970648A, “2-[2-(5-Nitro-2-furyl)vinyl]-4-(anilino)quinazolines” (Diamond Shamrock Corporation, priority 1974, dated 1976).

Legend:
Assay type in all cases: cell-based
[1] = tested on: Escherichia coli; assay: Bactericide test, Escherichia coli (agar streak plate)
Excerpt: Test formulations were examined for bactericidal and/or bacteriostatic activity against the test organisms shown in Tables A and B. These organisms were chosen as being representative of commercially important pathogens affecting animal agriculture. The antibiotic chlortetracycline was chosen as a positive control, since it has a broad spectrum of activity against a large number of organisms, and its activity can be used for comparative purposes.
Basic test formulations of the product of Examples I, II, III, and of chlortetracycline were prepared by dissolving 16 mg (0.016 g) in 2.0 ml of stock emulsifier solution (0.25% Triton X-155 in acetone by volume) and making each solution up to 50 ml with deionized water. The concentration of the test compound in the basic formulation was 320 ppm. Lower concentrations of the test compound were obtained by diluting the basic formulation with a 4% solution of the stock emulsifier in deionized water so that each dilution in the series differed only in test compound content.
Nutrient-tryptic soy agar (NTA) consisting of 2.0% Difco Bactoagar 0.8% nutrient broth (Difco), and 0.5% tryptic soy broth (Difco) was prepared and sterilized by autoclaving. A 2 ml aliquot of each test formulation was added to 8 ml of molten NTA. This mixture was then plated in a sterile polystyrene petri dish (100 × 15 mm). After the agar was set, suspensions of each of the test organisms were simultaneously streaked onto the surface of the agar. The inoculated plates were incubated for 48 hr at 28°C. The inhibition of growth of each organism was rated by visual comparison with the organism developing on non-treated agar. Growth inhibition reported as per cent control was rated in three categories as follows: 0% control, growth equivalent to that on non-treated agar; 50% control, sparse development and separated colonies; 100% control, no visible growth or development of colonies.
Test formulations of the product of Example IV were examined for bactericidal and/or bacteriostatic activity against the test organisms shown in Table B using the Bactericide Test described in Example V. The inhibition of organism growth with each diluted test formulation was rated visually by comparison with the organism developing on a non-treated control agar plate. Growth inhibition reported as per cent control was rated in three categories as follows: 0% control, growth equivalent to that on non-treated agar; 50% control is sparse development and separated colonies; and 100% control, development of individual colonies was not apparent.

[2] = tested on: Streptococcus agalactiae; assay: Bactericide test, Streptococcus agalactiae (agar streak plate)
How it was run: (§1)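 Compounds were formulated with Triton X-155/acetone emulsifier (basic formulation 320 ppm, serially diluted) and mixed 2:8 into molten nutrient-tryptic soy agar. Organisms were streaked onto the plates and incubated 48 hr at 28°C. Growth inhibition was scored visually against untreated agar as 0, 50 or 100% control.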

[3] = tested on: Streptococcus group E; assay: Bactericide test, Streptococcus group E (agar streak plate)
How it was run: as §1

[4] = tested on: Streptococcus faecalis; assay: Bactericide test, Streptococcus faecalis (agar streak plate)
How it was run: (§2)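 Compounds in Triton X-155/acetone emulsifier (basic formulation 320 ppm, diluted serially) were mixed 2:8 into molten nutrient-tryptic soy agar, then organisms streaked on the set plates. After 48 hr at 28°C, growth was scored visually against untreated agar as 0%, 50% (sparse, separated colonies) or 100% control (no visible colonies).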

[5] = tested on: Erysipelothrix rhusiopathiae; assay: Bactericide test, Erysipelothrix rhusiopathiae (agar streak plate)
How it was run: as §1

[6] = tested on: Salmonella gallinarum; assay: Bactericide test, Salmonella gallinarum (agar streak plate); details: Salmonella enterica, GALLINARUM
How it was run: as §2

[7] = tested on: Staphylococcus aureus; assay: Bactericide test, Staphylococcus aureus (agar streak plate); details: Staphylococcus aureus
How it was run: as §2

[8] = tested on: Vibrio coli; assay: Bactericide test, Vibrio coli (agar streak plate)
How it was run: as §1

[9] = tested on: Salmonella typhimurium; assay: Bactericide test, Salmonella typhimurium (agar streak plate); details: Salmonella enterica, TYPHIMURIUM
How it was run: as §1

[10] = tested on: Bordetella bronchiseptica; assay: Bactericide test, Bordetella bronchiseptica (agar streak plate)
How it was run: as §1

[11] = tested on: Salmonella cholerasuis; assay: Bactericide test, Salmonella cholerasuis (agar streak plate); details: Salmonella
How it was run: as §2

[12] = 100% inhibition at lower concentrations

O=[N+]([O-])c1ccc(C=Cc2nc(Nc3cccc(O)c3)c3ccccc3n2)o1 [Example II, 2-[2-(5-nitro-2-furyl)vinyl]-4-(m-hydroxyanilino)quinazoline]
100%: inhibition at 0.125 ppm ([2]; Streptococcus agalactiae, 0.125 ppm) | inhibition at 0.25 ppm ([2]; Streptococcus agalactiae, 0.25 ppm) | inhibition at 0.5 ppm ([2]; Streptococcus agalactiae, 0.5 ppm) | inhibition at 1 ppm ([2]; Streptococcus agalactiae, 1 ppm, read-out: % Inhibition) | inhibition at 2 ppm ([2]; Streptococcus agalactiae, 2 ppm) | inhibition at 4 ppm ([2]; Streptococcus agalactiae, 4 ppm, read-out: % Inhibition) | inhibition at 8 ppm ([2]; Streptococcus agalactiae, 8 ppm) | inhibition at 16 ppm ([2]; Streptococcus agalactiae, 16 ppm, read-out: % Inhibition) | inhibition at 32 ppm ([2]; Streptococcus agalactiae, 32 ppm) | inhibition at 64 ppm ([2]; Streptococcus agalactiae, 64 ppm, read-out: % Inhibition) | inhibition at 0.125 ppm ([3]; 0.125 ppm) | inhibition at 0.25 ppm ([3]; 0.25 ppm) | inhibition at 0.5 ppm ([3]; 0.5 ppm) | inhibition at 1 ppm ([3]; 1 ppm, read-out: % Inhibition) | inhibition at 2 ppm ([3]; 2 ppm) | inhibition at 4 ppm ([3]; 4 ppm, read-out: % Inhibition) | inhibition at 8 ppm ([3]; 8 ppm) | inhibition at 16 ppm ([3]; 16 ppm, read-out: % Inhibition) | inhibition at 32 ppm ([3]; 32 ppm) | inhibition at 64 ppm ([3]; 64 ppm, read-out: % Inhibition) | inhibition at 0.5 ppm ([4]; Enterococcus faecalis, 0.5 ppm) | inhibition at 1 ppm ([4]; Enterococcus faecalis, 1 ppm, read-out: % Inhibition) | inhibition at 2 ppm ([4]; Enterococcus faecalis, 2 ppm) | inhibition at 4 ppm ([4]; Enterococcus faecalis, 4 ppm, read-out: % Inhibition) | inhibition at 8 ppm ([4]; Enterococcus faecalis, 8 ppm) | inhibition at 16 ppm ([4]; Enterococcus faecalis, 16 ppm, read-out: % Inhibition) | inhibition at 32 ppm ([4]; Enterococcus faecalis, 32 ppm) | inhibition at 64 ppm ([4]; Enterococcus faecalis, 64 ppm, read-out: % Inhibition) | inhibition at 0.125 ppm ([5]; Erysipelothrix rhusiopathiae, 0.125 ppm) | inhibition at 0.25 ppm ([5]; Erysipelothrix rhusiopathiae, 0.25 ppm) | inhibition at 0.5 ppm ([5]; Erysipelothrix rhusiopathiae, 0.5 ppm) | inhibition at 1 ppm ([5]; Erysipelothrix rhusiopathiae, 1 ppm) | inhibition at 2 ppm ([5]; Erysipelothrix rhusiopathiae, 2 ppm) | inhibition at 4 ppm ([5]; Erysipelothrix rhusiopathiae, 4 ppm) | inhibition at 8 ppm ([5]; Erysipelothrix rhusiopathiae, 8 ppm) | inhibition at 16 ppm ([5]; Erysipelothrix rhusiopathiae, 16 ppm) | inhibition at 32 ppm ([5]; Erysipelothrix rhusiopathiae, 32 ppm) | inhibition at 64 ppm ([5]; Erysipelothrix rhusiopathiae, 64 ppm) | inhibition at 0.125 ppm ([8]; Campylobacter coli, 0.125 ppm) | inhibition at 0.25 ppm ([8]; Campylobacter coli, 0.25 ppm) | inhibition at 0.5 ppm ([8]; Campylobacter coli, 0.5 ppm) | inhibition at 1 ppm ([8]; Campylobacter coli, 1 ppm) | inhibition at 2 ppm ([8]; Campylobacter coli, 2 ppm) | inhibition at 4 ppm ([8]; Campylobacter coli, 4 ppm) | inhibition at 8 ppm ([8]; Campylobacter coli, 8 ppm) | inhibition at 16 ppm ([8]; Campylobacter coli, 16 ppm) | inhibition at 32 ppm ([8]; Campylobacter coli, 32 ppm) | inhibition at 64 ppm ([8]; Campylobacter coli, 64 ppm) | inhibition at 16 ppm ([10]; Bordetella bronchiseptica, 16 ppm, read-out: % Inhibition) | inhibition at 32 ppm ([10]; Bordetella bronchiseptica, 32 ppm) | inhibition at 64 ppm ([10]; Bordetella bronchiseptica, 64 ppm, read-out: % Inhibition)
50%: inhibition at 0.25 ppm ([4]; Enterococcus faecalis, 0.25 ppm)
0%: inhibition at 0.125 ppm ([1]; 0.125 ppm) | inhibition at 0.25 ppm ([1]; 0.25 ppm) | inhibition at 0.5 ppm ([1]; 0.5 ppm) | inhibition at 1 ppm ([1]; 1 ppm, read-out: % Inhibition) | inhibition at 2 ppm ([1]; 2 ppm) | inhibition at 4 ppm ([1]; 4 ppm, read-out: % Inhibition) | inhibition at 8 ppm ([1]; 8 ppm) | inhibition at 16 ppm ([1]; 16 ppm, read-out: % Inhibition) | inhibition at 32 ppm ([1]; 32 ppm) | inhibition at 64 ppm ([1]; 64 ppm, read-out: % Inhibition) | inhibition at 0.125 ppm ([4]; Enterococcus faecalis, 0.125 ppm) | inhibition at 0.125 ppm ([6]; 0.125 ppm) | inhibition at 0.25 ppm ([6]; 0.25 ppm) | inhibition at 0.5 ppm ([6]; 0.5 ppm) | inhibition at 1 ppm ([6]; 1 ppm) | inhibition at 2 ppm ([6]; 2 ppm) | inhibition at 4 ppm ([6]; 4 ppm) | inhibition at 8 ppm ([6]; 8 ppm) | inhibition at 16 ppm ([6]; 16 ppm) | inhibition at 32 ppm ([6]; 32 ppm) | inhibition at 64 ppm ([6]; 64 ppm) | inhibition at 0.125 ppm ([7]; 0.125 ppm) | inhibition at 0.25 ppm ([7]; 0.25 ppm) | inhibition at 0.5 ppm ([7]; 0.5 ppm) | inhibition at 1 ppm ([7]; 1 ppm, read-out: % Inhibition) | inhibition at 2 ppm ([7]; 2 ppm) | inhibition at 4 ppm ([7]; 4 ppm, read-out: % Inhibition) | inhibition at 8 ppm ([7]; 8 ppm) | inhibition at 16 ppm ([7]; 16 ppm, read-out: % Inhibition) | inhibition at 32 ppm ([7]; 32 ppm) | inhibition at 64 ppm ([7]; 64 ppm, read-out: % Inhibition) | inhibition at 0.125 ppm ([9]; 0.125 ppm) | inhibition at 0.25 ppm ([9]; 0.25 ppm) | inhibition at 0.5 ppm ([9]; 0.5 ppm) | inhibition at 1 ppm ([9]; 1 ppm, read-out: % Inhibition) | inhibition at 2 ppm ([9]; 2 ppm) | inhibition at 4 ppm ([9]; 4 ppm, read-out: % Inhibition) | inhibition at 8 ppm ([9]; 8 ppm) | inhibition at 16 ppm ([9]; 16 ppm, read-out: % Inhibition) | inhibition at 32 ppm ([9]; 32 ppm) | inhibition at 64 ppm ([9]; 64 ppm, read-out: % Inhibition) | inhibition at 0.125 ppm ([10]; Bordetella bronchiseptica, 0.125 ppm) | inhibition at 0.25 ppm ([10]; Bordetella bronchiseptica, 0.25 ppm) | inhibition at 0.5 ppm ([10]; Bordetella bronchiseptica, 0.5 ppm) | inhibition at 1 ppm ([10]; Bordetella bronchiseptica, 1 ppm, read-out: % Inhibition) | inhibition at 2 ppm ([10]; Bordetella bronchiseptica, 2 ppm) | inhibition at 4 ppm ([10]; Bordetella bronchiseptica, 4 ppm, read-out: % Inhibition) | inhibition at 8 ppm ([10]; Bordetella bronchiseptica, 8 ppm) | inhibition at 0.125 ppm ([11]; 0.125 ppm) | inhibition at 0.25 ppm ([11]; 0.25 ppm) | inhibition at 0.5 ppm ([11]; 0.5 ppm) | inhibition at 1 ppm ([11]; 1 ppm, read-out: % Inhibition) | inhibition at 2 ppm ([11]; 2 ppm) | inhibition at 4 ppm ([11]; 4 ppm, read-out: % Inhibition) | inhibition at 8 ppm ([11]; 8 ppm) | inhibition at 16 ppm ([11]; 16 ppm, read-out: % Inhibition) | inhibition at 32 ppm ([11]; 32 ppm) | inhibition at 64 ppm ([11]; 64 ppm, read-out: % Inhibition)
considerably more effective: effectiveness compared with chlortetracycline (in words) [2, 12] | effectiveness compared with chlortetracycline (in words) [3, 12] | effectiveness compared with chlortetracycline (in words) [4, 12] | effectiveness compared with chlortetracycline (in words) [5, 12] | effectiveness compared with chlortetracycline (in words) [8, 12] | effectiveness compared with chlortetracycline (in words) [10, 12]
